This passage reports IC50 and CPSB % inhibition results from patent US6040320A, “2-substituted imidazoles useful in the treatment of inflammatory diseases” (Ortho-McNeil Pharmaceutical, Inc., priority 1998, dated 2000).

The first experiment relates to TNF-α. Briefly: in vitro whole cell assay: LPS-stimulated TNF-α production in PBMC (ELISA). The experiment is classed as cell-based, human. The conditions noted are these: Homo sapiens, PBMC, read-out: TNF-α IC50. The method, then: In addition to the enzyme assay, the compounds of the invention were tested in an in vitro whole cell assay using peripheral blood mononuclear cells ("PBMC") which were obtained from human blood as follows. Freshly obtained venous blood was anticoagulated with heparin, diluted with an equal volume of phosphate buffered saline ("PBS") and placed in a sterile tube or other container. Aliquots (30 mL) of this mixture were transferred to centrifuge tubes which were underlaid with Ficoll-Hypaque (15 mL). The prepared tubes were centrifuged at 400×g without braking for 30 min at room temperature. Approximately 1/2 to 2/3 of the platelet layer above the mononuclear cell band was removed with a pipet. The majority of the mononuclear cell layer was carefully removed using a pipet and these PBMCs were diluted with PBS and spun at 600×g for 15 min. The resulting PBMCs were washed with another portion of PBS and spun at 400×g for 10 min at room temperature. The recovered pellets were diluted in low endotoxin RPMI/1% FCS culture medium and gave a cell concentration of 0.5-2.0 X 10^6 PMBC/mL. A small volume of the suspension was removed for counting on a hemocytometer and the remaining preparation was centrifuged at 200×g for 15 min at room temperature. The recovered pelleted PMBC were resuspended in RPMI/1% FCS to a concentration of 1.67×10^6 /mL.
To run the assay, the PBMC suspension (180 μL) was transferred to duplicate wells of a 96-well flat-bottom microtiter plate and incubated for 1 h at 37° C. A solution of test compound (10 μL: prepared at 20×the desired final concentration) was added to each well and the plate was incubated for 1 h at 37° C. A solution (10 μL) of LPS in RPMI/1% FCS (200 ng/mL) was added and the wells were incubated overnight at 37° C. The supernate (100 μL) was removed from each well and diluted with RPMI/1% FCS (400 μL). The samples were analyzed for TNF-α using a commercial ELISA kit (Genzyme). […] Since imidazoles which are unsubstituted at the 1-position are subject to tautomerization, the substituents listed for R1 and R2 are interchangeable when R3 is hydrogen.
On to `CC(=O)OCCCCc1nc(-c2ccc(F)cc2)c(-c2ccncc2)n1COCC[Si](C)(C)C` [Compound 44], for which the IC50 was determined as 150 nM.

Consider `C[Si](C)(C)CCOCn1c(C(=O)CCCO)nc(-c2ccncc2)c1-c1ccc(F)cc1` [Compound 9, 4-Hydroxy-1-[5-(4-fluorophenyl)-4-(4-pyridyl)-1-(2-(trimethylsilyl)ethoxymethyl)imidazol-2-yl]butanone], for which the IC50 is above 10000 nM.

Staying with this experiment, now noted: human PBMC, LPS; read-out: TNF-α IC50.
On to `Fc1ccc(-c2c(-c3ccncc3)ncn2CCCc2cccnc2)cc1` [Compound 81], for which the IC50 came to 500 nM.

With `OCc1nc(-c2ccc(F)cc2)c(-c2ccncc2)[nH]1` [Compound 49], the IC50 was determined as 250 nM.

In the case of `CCc1nc(-c2ccc(F)cc2)c(-c2ccncc2)n1CCCc1ccccc1` [Compound 66], the IC50 amounted to 6 nM.

In the case of `CC(=O)OCCCCc1nc(-c2ccc(F)cc2)c(-c2ccncc2)n1CCCN1C(=O)c2ccccc2C1=O` [Compound 50], the half-maximal inhibitory concentration (IC50) is 150 nM.

Regarding `O=C1c2ccccc2C(=O)N1CCCCn1cnc(-c2ccncc2)c1-c1ccc(F)cc1` [Compound 72], the IC50 came to 300 nM.

In the case of `O=C1c2ccccc2C(=O)N1CCCCc1nc(-c2ccncc2)c(-c2ccc(F)cc2)[nH]1` [Compound 47], the IC50 is 283 nM.

On to `COCc1nc(-c2ccncc2)c(-c2ccc(F)cc2)n1CCCN1C(=O)c2ccccc2C1=O` [Compound 60], for which the IC50 amounted to 400 nM.

In the case of `Fc1ccc(-c2c(-c3ccncc3)ncn2CCOc2ccccc2)cc1` [Compound 85], the IC50 came to 2000 nM.

With `CCOCCc1nc(-c2ccc(F)cc2)c(-c2ccncc2)n1CCCN1C(=O)c2ccccc2C1=O` [Compound 61], the IC50 came to 200 nM.

`CCc1nc(-c2ccc(F)cc2)c(-c2ccncc2)n1CCCN1C(=O)c2ccccc2C1=O` [Compound 64]: the IC50 was determined as 80 nM.

In the case of `O=C1c2ccccc2C(=O)N1CCCCn1cnc(-c2ccc(F)cc2)c1-c1ccncc1` [Compound 73], the IC50 came out at 500 nM.

On to `COCc1nc(-c2ccc(F)cc2)c(-c2ccncc2)n1CCCN1C(=O)c2ccccc2C1=O` [Compound 58], for which the IC50 turned out to be 75 nM.

For `Fc1ccc(-c2ncn(CCOc3ccccc3)c2-c2ccncc2)cc1` [Compound 86], the IC50 amounted to 40 nM.

For `Cc1nc(-c2ccncc2)c(-c2ccc(F)cc2)n1CCCc1ccccc1` [Compound 69], the IC50 turned out to be 100 nM.

As to `CCc1nc(-c2ccncc2)c(-c2ccc(F)cc2)n1CCCc1ccccc1` [Compound 67], the IC50 stood at 300 nM.

Regarding `CCCCCCCCCCSc1nc(-c2ccc(F)cc2)c(-c2ccncc2)[nH]1` [Compound 41], the IC50 is above 10000 nM.

Take `Fc1ccc(-c2nc(Br)n(CCCc3ccccc3)c2-c2ccncc2)cc1` [Compound 74]: the IC50 stood at 200 nM.

On to `O=C1c2ccccc2C(=O)N1CCCCn1c(I)nc(-c2ccc(F)cc2)c1-c1ccncc1` [Compound 77], for which the IC50 turned out to be 445 nM.

On to `Fc1ccc(-c2nc(I)n(CCCc3ccccc3)c2-c2ccncc2)cc1` [Compound 75], for which the IC50 amounted to 3 nM.

Turning to `Fc1ccc(-c2ncn(CCCc3cccnc3)c2-c2ccncc2)cc1` [Compound 82], the IC50 turned out to be 20 nM.

Take `Fc1ccc(-c2c(-c3ccncc3)ncn2CCCc2ccncc2)cc1` [Compound 83]: the half-maximal inhibitory concentration (IC50) came to 1000 nM.

For the molecule `Cc1nc(-c2ccc(F)cc2)c(-c2ccncc2)n1CCCN1C(=O)c2ccccc2C1=O` [Compound 62], the IC50 turned out to be 362 nM.

With `CCC(=O)Cn1cnc(-c2ccncc2)c1-c1ccc(F)cc1` [Compound 79], the IC50 is 600 nM.

On to `O=C1c2ccccc2C(=O)N1CCCCc1nc(-c2ccc(F)cc2)c(-c2ccncc2)n1Cc1ccccc1` [Compound 48], for which the IC50 was found to be 1750 nM.

Take `CCCSCc1nc(-c2ccc(F)cc2)c(-c2ccncc2)[nH]1` [Compound 35]: the IC50 worked out at 30 nM.

For the molecule `CCc1nc(-c2ccncc2)c(-c2ccc(F)cc2)n1CCCN1C(=O)c2ccccc2C1=O` [Compound 65], the IC50 worked out at 20 nM.

Regarding `Cc1nc(-c2ccc(F)cc2)c(-c2ccncc2)n1CCCc1ccccc1` [Compound 68], the IC50 was determined as 1.5 nM.

For `O=C1c2ccccc2C(=O)N1CCCn1c(CO)nc(-c2ccncc2)c1-c1ccc(F)cc1` [Compound 55], the IC50 is 1250 nM.

Take `CC(=O)NCCCSc1nc(-c2ccc(F)cc2)c(-c2ccncc2)[nH]1` [Compound 34]: the IC50 stood at 200 nM.

`CCCS(=O)(=O)Cc1nc(-c2ccncc2)c(-c2ccc(F)cc2)n1COCC[Si](C)(C)C` [Compound 57]: the IC50 amounted to 5000 nM.

For the molecule `O=C1c2ccccc2C(=O)N1CCSCc1nc(-c2ccc(F)cc2)c(-c2ccncc2)[nH]1` [Compound 33], the IC50 is 200 nM.

Consider `O=C1c2ccccc2C(=O)N1CCCn1c(CCCCO)nc(-c2ccc(F)cc2)c1-c1ccncc1` [Compound 51], for which the concentration for half-maximal inhibition (IC50) is 175 nM.

Turning to `OCCSCc1nc(-c2ccncc2)c(-c2ccc(F)cc2)[nH]1` [Compound 13, 5-(4-Fluorophenyl)-2-[4-hydroxy-2-thiabut-1-yl]4-(4-pyridyl)-imidazole], the IC50 was determined as 80 nM.

Regarding `O=C1c2ccccc2C(=O)N1CCCn1cnc(-c2ccncc2)c1-c1ccc(F)cc1` [Compound 70], the IC50 was 500 nM.

As for `O=C1c2ccccc2C(=O)N1CCCn1cnc(-c2ccc(F)cc2)c1-c1ccncc1` [Compound 71], the IC50 is 39 nM.

Take `O=C1c2ccccc2C(=O)N1CCCn1c(CCCCO)nc(-c2ccncc2)c1-c1ccc(F)cc1` [Compound 52]: the IC50 worked out at 200 nM.

For the molecule `Cc1nc(-c2ccncc2)c(-c2ccc(F)cc2)n1CCCN1C(=O)c2ccccc2C1=O` [Compound 63], the IC50 turned out to be 17 nM.

Consider `Fc1ccc(-c2ncn(CCCc3ccncc3)c2-c2ccncc2)cc1` [Compound 84], for which the IC50 was determined as 10 nM.

As to `O=C1c2ccccc2C(=O)N1CCCOCc1nc(-c2ccncc2)c(-c2ccc(F)cc2)n1CCCN1C(=O)c2ccccc2C1=O` [Compound 54], the IC50 is 200 nM.

For the molecule `O=C(NCCCSc1nc(-c2ccc(F)cc2)c(-c2ccncc2)[nH]1)c1ccc2ccccc2c1` [Compound 31], the IC50 is 275 nM.

With `O=C1c2ccccc2C(=O)N1CCCCn1c(I)nc(-c2ccncc2)c1-c1ccc(F)cc1` [Compound 76], the IC50 was found to be 800 nM.

Consider `O=C1c2ccccc2C(=O)N1CCCOCc1nc(-c2ccc(F)cc2)c(-c2ccncc2)n1CCCN1C(=O)c2ccccc2C1=O` [Compound 53], for which the IC50 came out at 175 nM.

Turning to `CCC(=O)Cn1cnc(-c2ccc(F)cc2)c1-c1ccncc1` [Compound 80], the IC50 was determined as 200 nM.

For `CS(=O)(=O)NCCCSc1nc(-c2ccc(F)cc2)c(-c2ccncc2)[nH]1` [Compound 32], the IC50 was determined as 150 nM.

For the molecule `CCCCc1cc(-c2c(-c3ccc(F)cc3)nc(CO)n2CCCc2ccccc2)ccn1` [Compound 78], the IC50 was found to be 450 nM.

The target of a further experiment is T1, p38 (Homo sapiens, UniProt Q16539).
T1 construct: 6xHis (N); made in house; host or cells: E. coli
T1 sequence (Q16539 whole entry): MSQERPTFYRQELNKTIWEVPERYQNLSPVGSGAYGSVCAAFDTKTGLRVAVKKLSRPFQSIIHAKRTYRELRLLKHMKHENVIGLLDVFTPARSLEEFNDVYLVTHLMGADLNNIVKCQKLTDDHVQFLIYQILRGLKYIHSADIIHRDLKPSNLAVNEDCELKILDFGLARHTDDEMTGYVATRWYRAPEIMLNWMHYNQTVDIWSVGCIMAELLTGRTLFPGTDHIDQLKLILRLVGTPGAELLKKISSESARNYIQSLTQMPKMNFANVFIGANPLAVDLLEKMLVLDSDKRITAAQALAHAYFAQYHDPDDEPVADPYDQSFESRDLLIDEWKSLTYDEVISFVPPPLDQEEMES
Description: in vitro inhibition of p38 (CPSB): purified recombinant 6xHis-p38, myelin basic protein substrate, 33P-ATP. It counts as biochemical.
Settings: not given
For `CC(=O)OCCCCc1nc(-c2ccncc2)c(-c2ccc(F)cc2)[nH]1` [Compound 16a, 4-[5(4)-(4-Fluorophenyl)-(5)-(4-pyridyl)imidazol-2-yl]butayl acetate], the half-maximal inhibitory concentration (IC50) amounted to 1420 nM.

Turning to `CCOC(CCSc1nc(-c2ccncc2)c(-c2ccc(F)cc2)[nH]1)OCC` [Compound 20], the IC50 was found to be 2000 nM.

For the molecule `N#CCSc1nc(-c2ccncc2)c(-c2ccc(F)cc2)[nH]1` [Compound 38], the IC50 was found to be 400 nM.

In the case of `CCCSc1nc(-c2ccncc2)c(-c2ccc(F)cc2)[nH]1` [Compound 1, 5(4)-(4-Fluorophenyl)2-(1-propyl)thio-4(5)-(4-pyridyl)-5(4)-imidazole], the IC50 stood at 680 nM.

As to `Fc1ccc(-c2[nH]c(S)nc2-c2ccncc2)cc1` [Compound 21], the IC50 stood at 1900 nM.

Turning to `CCCCSc1nc(-c2ccncc2)c(-c2ccc(F)cc2)[nH]1` [Compound 40], the IC50 was in the range of 280 to 700 nM.

The same experiment, now with this note: @ 5 μm.
As to `CC(=O)OCCCCc1nc(-c2ccncc2)c(-c2ccc(F)cc2)n1C(=O)OCc1ccccc1` [Compound 18], the CPSB % inhibition amounted to 10%.

Turning to `CC(=O)OCCCCc1nc(-c2ccncc2)c(-c2ccc(F)cc2)n1Cc1ccccc1` [Compound 42], the CPSB % inhibition turned out to be 2%.

Consider `O=C1c2ccccc2C(=O)N1CCCCc1nc(-c2ccncc2)c(-c2ccc(F)cc2)n1Cc1ccccc1` [Compound 43], for which the CPSB % inhibition is 8%.

As to `C[Si](C)(C)CCOCn1c(CO)nc(-c2ccncc2)c1-c1ccc(F)cc1` [Compound 36], the CPSB % inhibition is given as 6%.

The experiment is the same for the next values; noted with them: @ 20 μm.
As for `NCCCSc1nc(-c2ccc(F)cc2)c(-c2ccncc2)[nH]1` [Compound 3, 2-(3-Aminoprop-1-yl)thio-5(4)-(4-fluorophenyl)4(5)-(4-pyridyl)-imidazole], the CPSB % inhibition was 26%.

On to `CNC(=O)Sc1nc(-c2ccc(F)cc2)c(-c2ccncc2)[nH]1` [Compound 5, 5(4)-(4-Fluorophenyl)-2-(N-methylaminocarbonyl)thio-4(5)-(4-pyridyl)-imidazole], for which the CPSB % inhibition is recorded as 81%.

As a reminder, the IC50 is the point on the concentration scale where inhibition reaches its midpoint.
